A value given as a limit tells only on which side of the number the result lay.

Data set [1] relates to panel of six cytochrome P450 isozymes. The data set is described as follows: Cytochrome P450 inhibition profile (panel of six isozymes). Format: in vitro ADME.
The next data set addresses RBP4-TTR interaction (Homo sapiens, UniProt P02753). The data set is described as follows: High throughput in vitro assay detecting inhibition of RBP-TTR interaction. The data set is classed as binding. The following applies: Table 1, read-out: Apparent 50 IC. The protocol:
In some embodiments, the modulators disclosed herein are also used in in vitro assays for detecting perturbations in RBP or TTR activity. For example, the modulator is added to a sample comprising RBP, TTR and retinol to detect complex disruption. A component, for example, RBP, TTR, retinol or the modulator, is labeled to determine if disruption of complex formation occurs. For example, complex formation and subsequent disruption is detected and/or measured through conventional means, such as the sandwich assays disclosed above. Other detection systems are also used to detect modulation of RBP or TTR binding, for example, FRET detection of RBP-TTR-retinol complex formation.
The optimal dose of compounds of Formula (I) or (II) to block formation of A2E in abca4-1 mice is determined using a standard dose escalation study. In order to determine the range of doses which will be employed, a high throughput, in vitro assay which detects modulators that inhibit RBP-TTR interaction has been developed. […] An illustrative in vivo approach, utilizing a compound having the structure of Formula (I) or (II) is presented below.

The next data set concerns RBP4+/+, ABCA4−/− mice. The experiment in a line: Serum retinol in HPR-treated mice compared with genetic reduction of RBP4. The data set is classed as in vivo. As to conditions: HPR for a 28-day period, ABCA4+/− mice (>50% reduction). An excerpt:
FIG. 6. Genetic modulation of RBP4 in abca4 mutant mice: effects on serum retinol, RBP4 and toxic retinal fluorophores. A line of mice which expresses heterozygous mutations in RBP4 and ABCA4 (RBP4+/−, ABCA4+/−) was generated in order to determine if genetic reduction of RBP4 would be sufficient to reduce serum levels of retinol, RBP4 and toxic retinal fluorophores within the RPE. Serum retinol concentrations in RBP4+/−, ABCA4+/− mice were reduced by greater than 50% compared to mice with the normal complement of RBP (RBP4+/+, ABCA4−/−). […] Reductions in serum retinol correlated directly with reductions in RBP4, as determined by immunoblot analysis. Western blot identification of RBP4 in the various mouse lines is shown in panel B. Histological analysis were also performed. Tissue sections from RBP4+/+, ABCA4+/− mice (panel C), RBP4+/−, ABCA4+/− (panel D) and RBP4+/+, ABCA4+/+ (panel E) were analyzed by fluorescence microscopy.
Exploration of a non-pharmacological means of reducing lipofuscin fluorophores in order to validate our therapeutic approach based upon reduction of RBP levels in a patient will be performed. In this study, RBP protein levels will be reduced through genetic manipulation. Two new lines of mice expressing heterozygous mutations in retinol binding protein (RBP4) are generated. […]

In turn, `CC(C)(C)c1cc(Cl)ccc1OCCCCC(=O)Nc1ccc(CC(=O)O)cc1` [2-(4-(5-(2-tert-butyl-4-chlorophenoxy)pentanamido)phenyl)acetic acid] yielded an inhibition at 2 μM in data set [1] of less than 10%. Also, at RBP4-TTR interaction, the IC50 stood at 1000 nM.
Regarding `CC(C)(C)c1cc(Cl)ccc1OCC1CCC(C(=O)Nc2ccc(O)cc2)C1` (centres unmarked) [3-((2-tert-butyl-4-chlorophenoxy)methyl)-N-(4-hydroxyphenyl)cyclopentanecarboxamide], the inhibition at 2 μM in data set [1] was less than 10%.
As to `CC(C)(C)c1cc(Cl)ccc1OCC1CCCC(C(=O)O)C1` (centres unmarked) [3-((2-tert-butyl-4-chlorophenoxy)methyl)cyclohexanecarboxylic acid], the inhibition at 2 μM in data set [1] was less than 10%. Also, on RBP4-TTR interaction, the IC50 was determined as 160 nM.
For `CC(C)(C)c1cc(Cl)ccc1OCC1CCC(C(=O)O)C1` (centres unmarked) [3-((2-tert-butyl-4-chlorophenoxy)methyl)cyclopentanecarboxylic acid], in that order: less than 10% and 400 nM.
For `CC(C)(C)c1cc(Cl)ccc1OCCCC(=O)O` [4-(2-tert-butyl-4-chlorophenoxy)butanoic acid], in that order: roughly 15% and 1000 nM.
`CC(C)(C)c1cc(Cl)ccc1OCC1CCC(C(=O)Nc2ccc(C(=O)O)cc2)C1` (centres unmarked) [4-(3-((2-tert-butyl-4-chlorophenoxy)methyl)cyclopentanamido)benzoic acid] displayed an inhibition at 2 μM in data set [1] of less than 10%.
Same read-out and setting: for `CC(C)(C)c1cc(Cl)ccc1OCCCCC(=O)Nc1ccc(C(=O)O)cc1` [4-(5-(2-tert-Butyl-4-chlorophenoxy)pentanamido)benzoic acid] the value was less than 10%.
Consider `CC(C)(C)c1cc(Cl)ccc1OCCCCC(=O)Nc1ccc(O)cc1` [5-(2-tert-Butyl-4-chlorophenoxy)-N-(4-hydroxyphenyl)pentanamide], for which the inhibition at 2 μM in data set [1] is roughly 50%. Also, on RBP4-TTR interaction, the IC50 came out at 1000 nM.
For `CC(C)(C)c1cc(Cl)ccc1OCCCCC(=O)O` [5-(2-tert-Butyl-4-chlorophenoxy)pentanoic Acid], in that order: no more than 10% and 100 nM.
For `CC(C)(C)c1cc(Cl)ccc1OCCCCCCC(=O)Nc1ccc(O)cc1` [7-(2-tert-butyl-4-chlorophenoxy)-N-(4-hydroxyphenyl)heptanamide], in that order: roughly 40% and 1000 nM.
For `CC(C)(C)c1cc(Cl)ccc1OCCCCCCC(=O)O` [7-(2-tert-butyl-4-chlorophenoxy)heptanoic acid], in that order: roughly 15% and 500 nM.
Take `CC1=C(/C=C/C(C)=C/C=C/C(C)=C/C(=O)Nc2ccc(O)cc2)C(C)(C)CCC1` [HPR, fenretinide]: the “degree of serum retinol reduction” value in the data set on RBP4+/+, ABCA4−/− mice is listed as “comparable”.

Broadly, the inhibition is the percentage by which the read-out fell short of the control. Low readings indicate a weak effect, high ones a strong effect.

For the origin of these results see patent US7973079B2, “Methods and compounds for treating retinol-related diseases” (Revision Therapeutics, Inc., priority 2007, dated 2011).
